Data on 3 molecules can be found in EP2319525A1, “Composition for treating insulin resistance” (Universitätsklinikum Hamburg-Eppendorf, priority 2009, dated 2011).

Holding throughout (assay type): cell-based, rodent
The test system of test [1] is L6 myotubes. As to the kind of experiment: Uptake of H-3-labeled 2-Deoxy-D-glucose in differentiated L6 myotubes, short-term incubation (20 min + 10 min). Conditions: CGP-42112A 10^-8 mol/L, alone and in combination with losartan 10^-7 mol/L. Here is the method:
The data presented below were generated in the rodent myoblast cell line L6 (ATCC #CRL-1458). […] L6 myotubes express both the AT-1 and the AT-2 receptor at relevant levels making these cells an ideal model to test the interference of both receptors with basal and insulin-mediated glucose uptake. L6 myoblasts were maintained as proliferating myoblasts in DMEM high glucose medium supplemented with 10% FCS, 4 mM L-glutamine, 1 mM pyruvate at 37°C in the presence of 5% CO2. The seeding density used for the experiments was 2 x 10^4 cells/cm^2 on 1% gelatincoated dishes. To induce differentiation of myoblasts into myotubes, 90-100% confluent cultures (cultured on standard 6-well plates) were switched to DMEM supplemented with 2% adult horse serum. […] The uptake of H-3-labeled 2-Deoxy-D-glucose (GE Healthcare Biosciences), which cannot undergo further glycolysis, was measured as follows: • H-3-labeled 2-Deoxy-D-glucose uptake in the differentiated myotubes was analysed as described previously ([…] et al., Diabetologia (2005); 48 (1) :132-9) with minor modifications. […] Cell lysates were transferred to scintillation vials for radioactivity counting. Non-specific uptake was determined in the presence of cytochalasin B (10 μmol/L) and was subtracted from all values. […] The uptake of H-3-labeled 2-Deoxy-D-glucose was measured as described in Example 1 above.

For test [2], the system named is L6 myotubes. The description is as above. How it is done: (§1) The data presented below were generated in the rodent myoblast cell line L6 (ATCC #CRL-1458). […] L6 myotubes express both the AT-1 and the AT-2 receptor at relevant levels making these cells an ideal model to test the interference of both receptors with basal and insulin-mediated glucose uptake. L6 myoblasts were maintained as proliferating myoblasts in DMEM high glucose medium supplemented with 10% FCS, 4 mM L-glutamine, 1 mM pyruvate at 37°C in the presence of 5% CO2. The seeding density used for the experiments was 2 x 10^4 cells/cm^2 on 1% gelatincoated dishes. To induce differentiation of myoblasts into myotubes, 90-100% confluent cultures (cultured on standard 6-well plates) were switched to DMEM supplemented with 2% adult horse serum. Myoblast growth and myotube formation were examined using phase-contrast microscopy. The medium was changed every 2 days, and differentiation was allowed to continue for 10 days before the experimentation period.
(§2) L6 myotubes (n=9-12) cultured as described in example 1 were incubated either with angiotensin II (10^-7 mol/l), with a combination of angiotensin II (10^-7 mol/l) and AT-1 receptor blocker losartan (10^-7 mol/L), or with a combination of angiotensin II (10^-7 mol/l), losartan (10^-7 mol/L) and AT-2 receptor blocker PD 123319 (10^-7 mol/L). The uptake of H-3-labeled 2-Deoxy-D-glucose (GE Healthcare Biosciences), which cannot undergo further glycolysis, was measured as follows: • H-3-labeled 2-Deoxy-D-glucose uptake in the differentiated myotubes was analysed as described previously (Ceddia et al., Diabetologia (2005); 48 (1) :132-9) with minor modifications. Differentiated myotubes were serum-starved overnight in DMEM containing 1% glucose before being incubated with angiotensin II, the AT-1 receptor blocker losartan, and/or the AT-2 receptor blocker PD123319. […] Cell lysates were transferred to scintillation vials for radioactivity counting. Non-specific uptake was determined in the presence of cytochalasin B (10 µmol/L) and was subtracted from all values. […]

Test [3] has as its system L6 myotubes. In words: Long-term (24 hours) stimulation: basal and insulin-mediated uptake of H-3-labeled 2-Deoxy-D-glucose in L6 myotubes. Here is the method: as §1, §2
[4] abbreviates: PD 123319 10^-7 mol/L added to angiotensin II 10^-7 mol/L + losartan 10^-7 mol/L.

Molecules are shown by their SMILES. Side chains are listed from the residue outwards. Peptide text beside a SMILES is read from it. * marks the point of attachment. Nicotinoyl = O=C(c1cccnc1)*; Cbz = O=C(OCc1ccccc1)*

As for `CC[C@H](C)[C@H](NC(=O)[C@@H]1CCCN1C(=O)[C@H](Cc1c[nH]cn1)NC(=O)[C@H](CCCCNC(=O)[C@H](CCCNC(=N)N)NC(=O)OCc1ccccc1)NC(=O)[C@H](Cc1ccc(O)cc1)NC(=O)c1cccnc1)C(=O)O` [CGP-42112A] (Nicotinoyl-YK([Arg-Cbz])HPI-OH), the “glucose uptake compared with the effect of angiotensin II” value with L6 myotubes [1] is given as “mimicked”.
On to `Cc1cc(Cn2cnc3c2CC(C(=O)O)N(C(=O)C(c2ccccc2)c2ccccc2)C3)ccc1N(C)C` (stereo not shown) [PD123319], for which the “effect on the CGP-42112A-induced glucose uptake” value in the test on L6 myotubes [2] (PD 123319 10^-7 mol/L added to CGP-42112A 10^-8 mol/L + losartan 10^-7 mol/L) is “completely blocked”. Besides, the “effect on the glucose uptake enhanced by angiotensin II in the presence of losartan” value in the test with L6 myotubes [2] (setting [4]) is reported as “inhibited”; in the test with L6 myotubes [3] (setting [4]), “completely absent”. Besides, in the test on L6 myotubes [2] (substance alone, 10^-7 mol/L, L6 myotubes, n=9-12), the “uptake of H-3-labeled 2-Deoxy-D-glucose” value is “did not affect”.
Take `CCCCc1nc(Cl)c(CO)n1Cc1ccc(-c2ccccc2-c2nn[nH]n2)cc1` [losartan]: in the test on L6 myotubes [3] (losartan 10^-7 mol/L alone), the “basal glucose uptake of L6 myotubes” value is listed as “induced”. Besides, in the test with L6 myotubes [3] (losartan 10^-7 mol/L alone, insulin 1 µg/ml), the “insulin-mediated glucose uptake of L6 myotubes” value is given as “induced”.
